Test results from patent US9642839B2, “Substance having tyrosine kinase inhibitory activity and preparation method and use thereof” (Institute of Radiation Medicine, China Academy of Military …, priority 2013, dated 2017).

Experiments:
[1] = system: L02 cells; assay: MTS cell proliferation, normal liver cells; format: cell-based; details: Homo sapiens, L02, normal hepatic cells, 72 hours
Experimental: […] After culture at 37° C., 5% CO2 for 72 hours, MTS reagent (Promega Corporation) were added for further culture for 2-4 h.

[2] = target: FGFR; assay: Kinase Glo Plus kinase activity assay; format: biochemical
Experimental: 2) Activity of the rest 14 receptor tyrosine kinases was tested by using Kinase Glo Plus assay format, Progmag, and IC50 with regard to kinase activity was calculated based on the inhibition rate.

[3] = target: TrkB (Homo sapiens, UniProt Q16620); assay: Western blot, BDNF-induced TrkB phosphorylation and signaling pathway in SK-N-SH cells; format: cell-based; details: 0.05-1.0 μM, 200 ng/ml BDNF
Chain of TrkB (Q16620 32-822, species assumed): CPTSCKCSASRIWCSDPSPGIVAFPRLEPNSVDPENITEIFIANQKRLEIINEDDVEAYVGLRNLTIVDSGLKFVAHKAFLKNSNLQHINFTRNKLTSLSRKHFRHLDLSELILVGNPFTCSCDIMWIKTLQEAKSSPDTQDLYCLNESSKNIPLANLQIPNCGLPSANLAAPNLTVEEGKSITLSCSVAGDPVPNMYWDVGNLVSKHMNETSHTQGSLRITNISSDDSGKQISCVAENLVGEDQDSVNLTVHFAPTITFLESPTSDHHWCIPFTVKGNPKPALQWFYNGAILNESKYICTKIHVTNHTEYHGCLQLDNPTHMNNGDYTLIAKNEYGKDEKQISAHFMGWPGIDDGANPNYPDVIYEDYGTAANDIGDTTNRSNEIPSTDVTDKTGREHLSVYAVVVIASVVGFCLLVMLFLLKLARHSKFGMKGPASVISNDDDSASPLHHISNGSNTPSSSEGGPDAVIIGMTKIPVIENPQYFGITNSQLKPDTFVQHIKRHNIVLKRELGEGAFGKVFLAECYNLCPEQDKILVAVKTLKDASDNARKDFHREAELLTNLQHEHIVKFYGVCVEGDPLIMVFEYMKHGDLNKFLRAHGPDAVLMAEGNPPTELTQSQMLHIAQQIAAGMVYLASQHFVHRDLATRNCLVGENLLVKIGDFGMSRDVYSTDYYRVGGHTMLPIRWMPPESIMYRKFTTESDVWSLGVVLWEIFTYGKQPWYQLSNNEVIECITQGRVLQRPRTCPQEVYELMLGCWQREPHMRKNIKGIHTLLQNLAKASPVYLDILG
Experimental: The medium was changed once every 1-2 days. […] 500 ng/mL NGF or 200 ng/ml BDNF (if not added, marked as “-”) were added to stimulate the cells for 5 min. After cell lysis, total protein was extracted. Western blot assay was carried out with TrkA phosphorylated and non-phosphorylated (p-TrkA) antibodies, TrkB phosphorylated and non-phosphorylated (p-TrkB) antibodies, ERK phosphorylated and non-phosphorylated (p-ERK) antibodies, Akt phosphorylated and non-phosphorylated (p-Akt) antibodies, and GAPDH antibody.

[4] = system: MHCC97-H cells; assay: In vitro antitumor activity, MTS cell proliferation; format: cell-based, human; details: Homo sapiens, MHCC97H, hepatocellular cancer, 72 hours
Experimental: (§1) Method: 14 cell lines (MKN-45 cells, MHCC97-L cells, MHCC97-H cells, HLE cells, HepG2 cells, 7721 cells, L02 cells, A375 cells, H460 cells, A549 cells, SK-N-SH cells, MCF-7 cells, K562 cells, and Ba/F3-Tpr-Met cells (pre-B cells which are malignantly transformed by the c-Met constitutive active mutant Tpr-Met) were seeded into 96-well plate at 1×10^4 cells/well, and each well was added with 150 μl DMEM medium (purchased from Invitrogen) containing 10% fetal bovine serum (purchased from Hyclone). When cell adherent was observed, different concentrations of 2-indolone derivatives (concentrations at 0.1-10 μM) were added, in addition to the negative control (vehicle control group) and blank control (medium group). After culture at 37° C., 5% CO2 for 72 hours, MTS reagent (Promega Corporation) were added for further culture for 2-4 h.

[5] = system: A549 cells; assay: as above; format: cell-based, human; details: Homo sapiens, A549, lung cancer, 72 hours
Experimental: as §1

Cc1ccccc1NS(=O)(=O)c1ccc2c(c1)/C(=C/c1nc3ccccc3[nH]1)C(=O)N2 [Indo 5, 3-(1H-benzimidazol-2-methylene)-5-(2-methylphenylaminosulfo)-2-indolone]
IC50 [1]: 20.9 µM | IC50 [2]: > 10 µM | Phosphorylation of TrkB and downstream ERK and Akt [3]: significantly inhibited | IC50 [4]: 1030 nM | IC50 [5]: 2190 nM
